According to paper PMC9781104 (Pharmaceutics, 2022):
Read-outs that look alike come from different tables or passages of the source.

What was measured:
[1] = Pharmacokinetic panel study in CYP2D6-genotyped healthy female volunteers (observed plasma AUClast/Cmax, DGI and DD(G)I with clarithromycin or paroxetine); assay type: in vivo, human; conditions: for order of AUClast across CYP2D6 phenotypes: DGI setting
Description: Clinical data from a recently performed pharmacokinetic panel study (EudraCT-Nr.: 2009-014531-20, ClinicalTrails.gov: NCT01289756) were used for PBPK model development. The study protocol, patient information sheet and consent form were approved by the Ethics Committee of the University of Tübingen and the German Federal Institute for Drugs and Medical Devices (BfArM). All study participants had signed an informed consent form.
The study was conducted in 20 healthy, Caucasian, premenopausal female volunteers that were genotyped for CYP2D6 polymorphisms and subsequently assigned to predicted phenotypes according to the respective CYP2D6 activity score (AS) as depicted in Table 1 [17, 18]. […] After a wash-out phase of at least three weeks, clomiphene was administered concomitantly with the strong CYP3A4 inhibitor clarithromycin [19]. Here, the participants received 500 mg clarithromycin twice daily for four days. On day 5, a single dose of clomiphene citrate was administered together with 500 mg clarithromycin. Finally, in the third period, all subjects received clomiphene citrate together with the strong CYP2D6 inhibitor paroxetine. Here, 40 mg paroxetine was administered once daily for two days. On day 3, participants received a single dose of clomiphene citrate concomitantly with 40 mg paroxetine (Figure 1).
For the evaluation of DGI and DD(G)I effects, the predicted AUClast and Cmax effect ratios were calculated according to Equations (4) and (5) and compared with the corresponding observed values. Here, model performance was assessed using the prediction acceptance limits proposed by Guest et al. with 1.25-fold variability. (4) AUClast, AS=i ratio=AUClast, effect, AS=i/AUClast, control (5) Cmax, AS=i ratio=Cmax, effect, AS=i/Cmax, control
For the calculation of DGI ratios, AUClast, effect, AS=i and Cmax, effect, AS=i represent the AUClast and Cmax for CYP2D6 AS = i, while AUClast, control and Cmax, control are the AUClast and Cmax values for the NM (AS = 2) population. For the calculation of DD(G)I ratios, AUClast, effect, AS=i and Cmax, effect, AS=i represent the AUClast and Cmax for the CYP2D6 AS = i in the DD(G)I scenario with clarithromycin or paroxetine, while AUClast, control and Cmax, control are the AUClast and Cmax values for the CYP2D6 AS = i without the concomitant use of perpetrator drugs.

CYP2D6 [2] = assay: Fraction metabolized via CYP2D6 calculated from observed AUClast (PM vs NM, Equation S1); assay type: in vivo, human; conditions: calculated from observed relative AUClast increase PM vs NM
Description: Calculation of Fractions Metabolized
(§1) (normal metabolizers (NM)) [39]. […] In addition, data from
(§2) the CYP2D6 NM population in the clarithromycin DDI scenario (CYP3A4 inhibition) was used to
(§3) For this, the observed relative AUClast increase in the NM population between
(§4) the DDI scenario with CYP3A4 inhibition and the control scenario without inhibition was used,
(§5) 1 −fm = AUClast,effect,AS=iAUClast,control (S1)

CYP3A4 [3] = assay: Fraction metabolized via CYP3A4 calculated from observed AUClast (NM with vs without clarithromycin, Equation S1); assay type: in vivo, human; conditions: estimated from observed AUClast increase in NM with clarithromycin
Description: Calculation of Fractions Metabolized
as §1, §2, §3, §4
Of note, a complete CYP3A4 inhibition through clarithromycin
was assumed, given the strong and mechanism-based inhibition through clarithromycin, which was
as §5
for the NM population without concomitant clarithromycin administration.

[4] = Bioavailability calculated from literature AUC0-24h after oral and intravenous clomiphene citrate; assay type: in vivo, human; conditions: 50 mg clomiphene citrate; intravenous study n = 2
Text: Both isomers show highly distinct pharmacokinetic characteristics and also differ in affinity to the target receptor [22, 28]. […] While the calculated value from the literature is based on an intravenous study with a small number of study participants (n = 2), a low bioavailability can be supported with the developed PBPK model.

CYP2D6 [5] = assay: In vitro scaling factors from CYP2D6 activity score-specific in vitro metabolite formation rates; assay type: in vitro ADME, human
Text: Here, kcat, AS=i represents the catalytic rate constant for CYP2D6 AS = i, kcat, AS=2 is the catalytic rate constant for the NM population and IVSFi is the corresponding in vitro scaling factor (IVSF).
S2. Drug-Gene-Interaction (DGI) Modeling
S2.1. CYP2D6 in vitro Scaling Factors
The estimated CYP2D6 kcat values for the NM population were extrapolated to the intermediate metabolizers (IM) (AS=0.5, AS=0.75 and AS=1) and ultrarapid metabolizers (UM) populations according to Equation 1 in the main manuscript, using in vitro scaling factors (IVSFs). Determination of IVSFs were based on AS-specific in vitro metabolite formation rates relative to the corresponding formation rate in NM as a reference. The respective IVSFs for each CYP2D6-dependent pathway are depicted in Table S8. Measured in vitro data for (E)-4-OH-Clom and (E)-4-OH-DE-Clom AS-specific formation rates were available, while mean values were assumed for the remaining CYP2D6-dependent metabolic pathways.
Table S8. Employed in vitro scaling factors (IVSFs) for individual CYP2D6 activity scores. […]

CYP2D6 [6] = conditions: cited from earlier work; for Km: literature value adapted with fu,inc
CYP3A4 [7] = system: CYP3A4; parameters: method as in ref [17, 18] of supplement; conditions: literature value adapted with fu,inc; ref [17, 18] of supplement; read-out: CYP3A4 Km → (E)-DE-Clom; cited from earlier work
CYP2B6 = system: CYP2B6; parameters: method as in ref [17, 18] of supplement; conditions: literature value adapted with fu,inc; ref [17, 18] of supplement; read-out: CYP2B6 Km → (E)-4-OH-Clom; cited from earlier work
[8] = cited from earlier work; for pKa (base), literature: ref [23], [30]
CYP2D6 [9] = assay: PBPK model: CYP2D6-mediated metabolism (Km, kcat, contribution); parameters: species or system human; conditions: Assumed equal to Km of CYP2D6-mediated hydroxylation of (E)-4-OH-Clom, adapted with fu,inc=0.243; read-out: CYP2D6 Km → undef., assumed
Text: An additional biotransformation process via CYP2B6 to (E)-4-OH-Clom was implemented to cover the fraction of CYP2D6-independent metabolism observed in the PM population and in CYP2D6 DD(G)I scenarios.
(E)-4-OH-Clom is metabolized via CYP2D6 to (Z)-3,4-dihydroxyclomiphene (implemented as an undefined metabolite), via an unspecific hepatic clearance mechanism and via CYP3A4 to the second active metabolite (E)-4-OH-DE-Clom. (E)-4-OH-DE-Clom is also formed via CYP2D6 metabolism of (E)-DE-Clom, which in turn, represents the main route of elimination of (E)-DE-Clom. Furthermore, (E)-DE-Clom is metabolized to minor extents through CYP2D6 and CYP3A4 to (E)-N,N-didesethylclomiphene (implemented as an undefined metabolite). The metabolism of (E)-4-OH-DE-Clom has not been extensively investigated, yet. According to work by Kröner, (E)-4-OH-DE-Clom is presumably metabolized through a CYP-mediated pathway to (Z)-3,4-dihydroxydesethyl-clomiphene. […]
This was integrated by accounting for the 80:20 metabolic ratio of CYP3A4 to CYP2D6 reported by Mazzarino and coworkers. […] As previously described, the ratio of the corresponding measured in vitro metabolic enzyme activities was used dur-ing the parameter estimation step for optimization of kcat values (kcat, CYP3A4 = 0.13 * kcat, CYP2D6)

estrogen receptor = conditions: read-out: half-maximal inhibitory concentration towards the estrogen receptor; cited from earlier work
[10] = parameters: method as in PMID 22108178; conditions: healthy female volunteers; cited from earlier work
[11] = [34], [38] of supplement (ChemAxon Chemicalize)

SMILES: CCN(CC)CCOc1ccc(/C(=C(/Cl)c2ccccc2)c2ccccc2)cc1 [(E)-Clom, (E)-clomiphene, reference compound]
- order of AUClast across CYP2D6 phenotypes [1]: AUCPM > AUCIM > AUCNM > AUCUM
- exposure increase in clarithromycin DD(G)I scenario vs control ([1]; NM): ~ 15%
- AUClast increase with concomitant paroxetine ([1]; all phenotypes except PM): 2.5–12 fold
- AUClast change during CYP3A4 inhibition ([1]; clarithromycin, all phenotypes): slight increase
- fraction metabolized (fm) via CYP2D6 (CYP2D6 [2]): ~90%
- fraction metabolized (fm) via CYP3A4 (CYP3A4 [3]): approximately 13%
- bioavailability calculated from reported AUC0-24h after oral and intravenous application [4]: ~ 6.3%
- IVSF, CYP2D6-mediated pathway → (E)-DE-Clom (CYP2D6 [5]; AS=0, mean value assumed): 0
- IVSF, CYP2D6-mediated pathway → undef. (CYP2D6 [5]; AS=0, mean value assumed): 0
- IVSF, CYP2D6-mediated pathway → (E)-4-OH-Clom (CYP2D6 [5]; AS=0, relative to NM, from in vitro formation rates, supplement ref [17]): 0
- IVSF, CYP2D6-mediated pathway → (E)-DE-Clom (CYP2D6 [5]; AS=0.5, mean value assumed): 0.17
- IVSF, CYP2D6-mediated pathway → undef. (CYP2D6 [5]; AS=0.5, mean value assumed): 0.17
- IVSF, CYP2D6-mediated pathway → (E)-4-OH-Clom (CYP2D6 [5]; AS=0.5, relative to NM, from in vitro formation rates, supplement ref [17]): 0.19
- IVSF, CYP2D6-mediated pathway → (E)-DE-Clom (CYP2D6 [5]; AS=0.75, mean value assumed): 0.23
- IVSF, CYP2D6-mediated pathway → undef. (CYP2D6 [5]; AS=0.75, mean value assumed): 0.23
- IVSF, CYP2D6-mediated pathway → (E)-4-OH-Clom (CYP2D6 [5]; AS=0.75, relative to NM, from in vitro formation rates, supplement ref [17]): 0.27
- IVSF, CYP2D6-mediated pathway → (E)-DE-Clom (CYP2D6 [5]; AS=1, mean value assumed): 0.51
- IVSF, CYP2D6-mediated pathway → undef. (CYP2D6 [5]; AS=1, mean value assumed): 0.51
- IVSF, CYP2D6-mediated pathway → (E)-4-OH-Clom (CYP2D6 [5]; AS=1, relative to NM, from in vitro formation rates, supplement ref [17]): 0.57
- IVSF, CYP2D6-mediated pathway → (E)-4-OH-Clom (CYP2D6 [5]; AS=2 (NM, reference)): 1
- IVSF, CYP2D6-mediated pathway → (E)-DE-Clom (CYP2D6 [5]; AS=2 (NM, reference)): 1
- IVSF, CYP2D6-mediated pathway → undef. (CYP2D6 [5]; AS=2 (NM, reference)): 1
- IVSF, CYP2D6-mediated pathway → (E)-DE-Clom (CYP2D6 [5]; AS=3, mean value assumed): 1.41
- IVSF, CYP2D6-mediated pathway → undef. (CYP2D6 [5]; AS=3, mean value assumed): 1.41
- IVSF, CYP2D6-mediated pathway → (E)-4-OH-Clom (CYP2D6 [5]; AS=3, relative to NM, from in vitro formation rates, supplement ref [17]): 1.52
- intrinsic clearance of CYP2D6 pathway to (Z)-3-hydroxyclomiphene compared to formation of (E)-4-OH-Clom (CYP2D6 [6]; higher, ref [19] of supplement): 1.8 fold
- Km (CYP2D6 [6]; ref [17, 18] of supplement, read-out: CYP2D6 Km → (E)-DE-Clom): 0.78 µM
- Km (CYP2D6 [6]; ref [19] ((E)-Clom, (E)-4-OH-Clom), [17, 18] ((E)-DE-Clom) of supplement, read-out: CYP2D6 Km → undef.): 0.03 µM
- Km (CYP2D6 [6]; ref [19] of supplement, read-out: CYP2D6 Km → (E)-4-OH-Clom): 0.13 µM
- Km (CYP3A4 [7]): 0.78 µM
- Km (CYP2B6): 0.6 µM
- Solubility (pH 6.8) ([8]; pH 6.8, ref [24] of supplement): 0.0138 mg/ml
- pKa (base), literature [8, 11]: 9.31

SMILES: CCNCCOc1ccc(/C(=C(/Cl)c2ccccc2)c2ccc(O)cc2)cc1 [(E)-4-OH-DE-Clom, (E)-4-hydroxy-N-desethylclomiphene]
- order of AUClast across CYP2D6 phenotypes [1]: AUCIM (AS = 0.5) > AUCNM > AUCUM > AUCPM
- observed DGI AUClast effect ratio ([1]; IM (AS = 1) vs NM): ~ 0.8
- observed AUClast effect ratio in clarithromycin DDGI scenario vs control ([1]; PM): ~ 0.6 fold
- Km (CYP2D6 [9]): 8.86 µM
- IVSF, CYP2D6-mediated pathway → undef. (CYP2D6 [5]; AS=0, mean value assumed): 0
- IVSF, CYP2D6-mediated pathway → undef. (CYP2D6 [5]; AS=0.5, mean value assumed): 0.17
- IVSF, CYP2D6-mediated pathway → undef. (CYP2D6 [5]; AS=0.75, mean value assumed): 0.23
- IVSF, CYP2D6-mediated pathway → undef. (CYP2D6 [5]; AS=1, mean value assumed): 0.51
- IVSF, CYP2D6-mediated pathway → undef. (CYP2D6 [5]; AS=2 (NM, reference)): 1
- IVSF, CYP2D6-mediated pathway → undef. (CYP2D6 [5]; AS=3, mean value assumed): 1.41
- IC50 (estrogen receptor): 0.9 nM
- Solubility (pH 6.5) ([8]; pH 6.5, ref [30], [34], [38] of supplement (ChemAxon Chemicalize)): 0.17 mg/ml
- logP (lipophilicity), literature ([8]; ref [23, 25-27], [30, 31], [25, 34], [38] of supplement): 4.47
- pKa (base), literature [8, 11]: 9.65
- pKa (acid) ([8]; ref [34], [38] of supplement (ChemAxon Chemicalize)): 8.69
- maximum plasma concentration (Cmax) in CYP2D6 PM compared with NM [10]: approximately ten-fold lower
